Reference: US20250263496A1, “Neutrophil-Activating Therapy for the Treatment of Cancer” (The Board of Trustees of the Leland Stanford Junior …, priority 2024, published 2025)

What was measured:
[1] = test system: B16 cells; test: Mouse in vitro cytotoxicity (EuTDA), B16 cells co-cultured with neutrophils; assay type: cell-based; conditions: for effect of agent on ex vivo killing of tumor cells by neutrophils: neutrophils from treated tumors stimulated with neutrophil-activating therapy
Procedure: B16 tumors were treated by intratumoral injection of TNF+anti-CD40+anti-gp75 and harvested 12 hours post-treatment. Tumors were dissected away from any surrounding fat, minced, and digested in 5 mg/ml collagenase IV (Worthington) plus 0.1 mg/ml DNase I (Sigma) with continuous mixing by magnetic stir bars for 20 minutes at 37° C. in RPMI-1640 (Gibco) with 2% FBS. Following digestion, tissue was mashed through a […] cell strainer (Falcon) and washed. For some studies, bone marrow was harvested by grinding bones from tumor-naive untreated mice in a mortar and pestle and mashing through a […] strainer (Falcon). Neutrophils were isolated from tumor and bone marrow samples with the MojoSort Mouse Ly6G Selection Kit (BioLegend), according to the manufacturer's instructions, and used in the cytotoxicity assay.
Cytotoxicity assays were conducted using the EuTDA assay from the DELFIA TRF cytotoxicity kit (PerkinElmer) according to the manufacturer's instructions. Briefly, B16 cells were labeled for 10 minutes with BATDA, and 5×10^3 labeled cells were added per well to a 96 well V-bottom plate in RPMI-1640. Neutrophils were added at a ratio of 10:1 unless otherwise stated. All co-cultures were conducted in the presence of TNF (10 ng/ml), anti-CD40 (1 μg/ml), anti-gp75 (1 μg/ml), and 10% active mouse C57BL/6 complement serum (Innovative Research), except where indicated otherwise. Mouse C57BL/6 complement serum was heat-inactivated for 40 minutes at 57° C. where inactivation is specified. In some experiments, mouse IgG2a isotype control (1 μg/ml, isotype control for anti-gp75, clone C1.18.4, Bio X Cell), anti-mouse CD16/CD32 (10 μg/ml, clone 2.4G2, Bio X Cell), recombinant mouse C5a (50 nM, R&D Systems), anti-C5a (25 μg/ml, clone 295108, R&D Systems), rat IgG2a isotype control (25 μg/ml, isotype control for anti-C5a, clone 2A3, Bio X Cell), anti-C5AR1 (5 μg/ml, clone 20/70, BioLegend), rat IgG2b isotype control (5 μg/ml, isotype control for anti-C5AR1, clone LTF-2, Bio X Cell), SC57461A (10 μM, Cayman Chemical), CP-105696 (1 μM, Sigma), topiroxostat (10 μM, MedChem Express), or DMSO (vehicle for SC57461A, CP-105696, and topiroxostat) were added to the wells with the B16 and neutrophils. After 4 hours of co-culture at 37° C., supernatant was taken from the wells, Europium solution was added, and TDA released from lysed B16 cells was detected by […] on a Victor X4 fluorescence microplate reader (PerkinElmer). Percent maximal lysis was determined by calculating the specific release of TDA using the formula: (experimental release−spontaneous release)/(maximum release −spontaneous release), where spontaneous release was determined by wells containing no neutrophils and maximum release was determined by wells with lysis buffer added.
For trogocytosis studies investigating transfer of tumor-binding antibody, anti-gp75 labeled with AF647 (clone TA99, Novus Biologicals) was used in place of unlabeled anti-gp75. For studies investigating transfer of B16 cell membrane, DiD′ Solid (ThermoFisher Scientific) was reconstituted in DMSO at 10 mg/ml and diluted to a working solution of 5 μg/ml in serum-free DMEM. B16 cells were labeled in this solution for 20 minutes at 37° C. at 1×10^6 cells/ml. Labeled B16 was washed 3 times in warm media before being added to the co-culture wells with the neutrophils. Following co-culture, flow cytometry was used to identify DiD signal in neutrophils.

[2] = test system: B16 tumors; test: TUNEL staining of cell death in B16 tumors; assay type: in vivo, mouse; conditions: agent given prior to neutrophil-activating therapy
Procedure: Tumors were dissected away from surrounding fat, fixed in 2% paraformaldehyde for 2 hours at 4° C., equilibrated in a 30% sucrose solution at 4° C., and embedded and frozen in O.C.T. Compound (Tissue-Tek). Slides were cut to […] and blocked with 1% BSA and 10% serum matched to the secondary antibody species. The following antibodies were used for immunofluorescence: PE anti-Ly6G (clone 1A8, BioLegend), DyLight 650 anti-gp75 (clone TA99, Bio X Cell, labeled using DyLight 650 NHS Ester (Thermo Scientific)), fluorescein anti-gp75 (clone TA99, Bio X Cell, labeled using NHS-Fluorescein (Thermo Scientific)), FITC anti-DNA/RNA damage (clone 15A3, recognizing 8-hydroxy-2′-deoxyguanosine/8-oxo-7,8-dihydroguanine/8-oxo-7,8-dihydroguanosine, Abcam), and AF647 anti-C3 (clone 11H9, Novus Biologicals). DAPI (Invitrogen) was stained at 1 μg/ml. FITC/fluorescein signal was amplified using AF488 anti-FITC (ThermoFisher Scientific), and PE was amplified using biotin anti-PE (clone PE001, BioLegend) followed by DyLight 594 streptavidin (BioLegend) or DyLight 649 streptavidin (BioLegend). Prior to use of biotinylated antibodies, endogenous biotin was blocked using the Avidin/Biotin Blocking Kit (Vector Laboratories). Prior to DNA/RNA damage staining, sections were permeabilized with 0.1% Triton X-100 in 0.1% sodium citrate. TUNEL (Terminal deoxynucleotidyl transferase dUTP nick end labeling) staining was performed using the In Situ Cell Death Detection Kit, TMR Red (Roche) according to the manufacturer's instructions. […] All parameters that were quantified were acquired with identical microscope settings and adjusted identically in Photoshop, and all adjustments were applied equally across the entire tumor. Quantification was performed in ImageJ, using the wand tool on the overlaid multichannel image to draw a border around the tumor and then measuring the percent area within that border with signal for the channel of the marker quantified.

[3] = test system: naive neutrophils; test: Mouse in vitro neutrophil stimulations; assay type: cell-based
Procedure: Mouse in vitro neutrophil stimulations. Bone marrow was harvested by grinding bones in a mortar and pestle and mashing through a […] strainer (Falcon). Neutrophils were isolated by negative selection with the MojoSort Mouse Neutrophil Isolation Kit (BioLegend). Following isolation, neutrophils were plated in Opti-MEM (Gibco) at 1×10^5 cells in 100 μl and stimulated with 10 ng/ml TNF, 1 μg/ml anti-CD40, 1 μg/ml anti-gp75, and/or 50 nM recombinant mouse C5a (R&D Systems) for 30 minutes at 37° C. After 30 minutes, the supernatant was collected, centrifuged to remove cells and debris, and analyzed for LTB4 using the Leukotriene B4 ELISA kit (Cayman Chemical 520111) as described above. Additionally, stimulated neutrophils were stained for activation markers and analyzed by flow cytometry as described above.

Molecule | effect of agent on ex vivo killing of tumor cells by neutrophils [1] | effect of agent on treatment-induced tumor cell death [2] | requirement for ex vivo killing of B16 cells by tumor-infiltrating neutrophils [1] | neutrophil activation ([3]; in vitro) | LTB4 production by neutrophils ([3]; in vitro stimulation)
O=C(O)C1(c2ccc3c(c2)OC[C@H](Cc2ccc(-c4ccccc4)cc2)[C@H]3O)CCCC1 [CP-105696] | prevented ex vivo killing of tumor cells | – | – | – | –
N[C@@H](CCC(=O)N[C@@H](CS)C(=O)NCC(=O)O)C(=O)O [GSH, Reduced L-glutathione] | blocked ex vivo killing of tumor cells | decreased tumor cell death in vivo | – | – | –
CN(CCCOc1ccc(Cc2ccccc2)cc1)CCC(=O)O.Cl [SC57461A] | prevented ex vivo killing of tumor cells | prevented treatment-induced tumor cell death | – | – | –
catalase: enzyme neutralizing hydrogen peroxide (C40, Sigma) (protein, UniProt P00432 2-527, looked up) Catalase: ADNRDPASDQMKHWKEQRAAQKPDVLTTGGGNPVGDKLNSLTVGPRGPLLVQDVVFTDEMAHFDRERIPERVVHAKGAGAFGYFEVTHDITRYSKAKVFEHIGKRTPIAVRFSTVAGESGSADTVRDPRGFAVKFYTEDGNWDLVGNNTPIFFIRDALLFPSFIHSQKRNPQTHLKDPDMVWDFWSLRPESLHQVSFLFSDRGIPDGHRHMNGYGSHTFKLVNANGEAVYCKFHYKTDQGIKNLSVEDAARLAHEDPDYGLRDLFNAIATGNYPSWTLYIQVMTFSEAEIFPFNPFDLTKVWPHGDYPLIPVGKLVLNRNPVNYFAEVEQLAFDPSNMPPGIEPSPDKMLQGRLFAYPDTHRHRLGPNYLQIPVNCPYRARVANYQRDGPMCMMDNQGGAPNYYPNSFSAPEHQPSALEHRTHFSGDVQRFNSANDDNVTQVRTFYLKVLNEEQRKRLCENIAGHLKDAQLFIQKKAVKNFSDVHPEYGSRIQALLDKYNEEKPKNAVHTYVQHGSHLSAREKANL | blocked ex vivo killing of tumor cells | – | – | – | –
C5a: recombinant mouse C5a (R&D Systems) (protein, UniProt P06684 679-755, looked up, C5a anaphylatoxin) C5a anaphylatoxin: NLHLLRQKIEEQAAKYKHSVPKKCCYDGARVNFYETCEERVARVTIGPLCIRAFNECCTIANKIRKESPHKPVQLGR | – | – | required C5a or serum containing functional complement | activated neutrophils | induced LTB4
